The values that follow come from patent US10221182B2, “3,3-difluoro-piperidine derivatives as NR2B NMDA receptor antagonists” (Rugen Holdings (Cayman) Limited, priority 2015, dated 2019).

The IC50 is the concentration that gives 50% inhibition.

Data set [1] concerns the target human NR1/NR2A (Homo sapiens (Human), UniProt Q05586+Q12879). Description: NR2A antagonist activity, Fluo-4 calcium influx assay in HEK293 cells. It counts as cell-based. Here is the method:
(§1) Activation of the NR2A or NR2B subtype of NMDA receptor with glutamate as an agonist and glycine co-agonist on these cells results in calcium influx, which can be monitored with fluorescent indicator Fluo-4.
(§2) For experiments, the cells were seeded onto poly-D-lysine-coated 96-well black plates with clear bottom (Corning) at a density of ˜50,000 cells/well. After overnight culture, the growth medium was removed from the wells and the cells were incubated at 37° C. for 60 min in Hanks buffer containing 4 μM fluo-4-AM (Invitrogen) and 0.1% bovine serum albumin (BSA). After dye-loading, the cells were washed three times with Hanks buffer and incubated for 10 min at room temperature with various concentrations of test compounds prepared in Hanks buffer with 0.1% BSA. The cell plates were placed onto FDSS μCell fluorescence reader (Hamamatsu). After 20 sec reading of background fluorescence, agonist glutamate at final 100 μM and co-agonist glycine at final 50 μM were added to the cells to activate the receptor, and the resulting fluorescence changes were recorded and quantified. Based on the changes in fluorescence intensity, the pharmacological effect of test compounds were analyzed and the IC50 values derived from a non-linear least squares fitting of the concentration-dependent response to a standard logistic equation using Prism (Graphpad, Inc): Amplitude=Max Amplitude/(1+([…])^n).

A further data set concerns the target human NR1/NR2B (Homo sapiens (Human), UniProt Q05586+Q13224). Briefly: NR2B antagonist activity, Fluo-4 calcium influx assay in HEK293 cells. It counts as cell-based. Conditions: glutamate 100 μM, glycine 50 μM. Here is the method: as §1, §2
Another data set has as its target hERG channel (Homo sapiens (Human), UniProt Q12809). Briefly: hERG channel inhibition, whole cell patch clamp in HEK293 cells. The conditions noted are these: for hERG @ 10 μM: inhibition at 10 μM. On the technique in general: The hERG channel carries a current that helps repolarise heart muscle cells.
A further data set concerns the target CYP2D6 (Homo sapiens (Human), UniProt P10635). Description: CYP P450 enzyme inhibition in pooled human liver microsome. Conditions: dextromethorphan 5 μM; for CYP2D6 @ 10 μM: inhibition at 10 μM, pooled HLM.
In data set [2] the target is human NR1/NR2A (Homo sapiens (Human), UniProt Q12879). Description: NR2A antagonist activity, Fluo-4 calcium influx assay in HEK293 cells. It counts as cell-based. Here is the method: as §1, §2
The mark [3] stands for this setting: hNR2B IC50, HEK293 cells expressing NR1/NR2B.
The mark [4] stands for this setting: HEK293 cells expressing NR1/NR2A, glutamate 100 μM, glycine 50 μM, read-out: hNR2A IC50.
Setting [5] is: HEK293 cells expressing NR1/NR2B, read-out: hNR2B IC50.
The mark [6] stands for this setting: read-out: hNR2A IC50; HEK293 cells expressing NR1/NR2A; glutamate 100 μM, glycine 50 μM.

Like-named read-outs stand apart in the source and are kept apart here. Bounds are passed on as bounds.

Chain of hERG channel (Q12809 whole entry): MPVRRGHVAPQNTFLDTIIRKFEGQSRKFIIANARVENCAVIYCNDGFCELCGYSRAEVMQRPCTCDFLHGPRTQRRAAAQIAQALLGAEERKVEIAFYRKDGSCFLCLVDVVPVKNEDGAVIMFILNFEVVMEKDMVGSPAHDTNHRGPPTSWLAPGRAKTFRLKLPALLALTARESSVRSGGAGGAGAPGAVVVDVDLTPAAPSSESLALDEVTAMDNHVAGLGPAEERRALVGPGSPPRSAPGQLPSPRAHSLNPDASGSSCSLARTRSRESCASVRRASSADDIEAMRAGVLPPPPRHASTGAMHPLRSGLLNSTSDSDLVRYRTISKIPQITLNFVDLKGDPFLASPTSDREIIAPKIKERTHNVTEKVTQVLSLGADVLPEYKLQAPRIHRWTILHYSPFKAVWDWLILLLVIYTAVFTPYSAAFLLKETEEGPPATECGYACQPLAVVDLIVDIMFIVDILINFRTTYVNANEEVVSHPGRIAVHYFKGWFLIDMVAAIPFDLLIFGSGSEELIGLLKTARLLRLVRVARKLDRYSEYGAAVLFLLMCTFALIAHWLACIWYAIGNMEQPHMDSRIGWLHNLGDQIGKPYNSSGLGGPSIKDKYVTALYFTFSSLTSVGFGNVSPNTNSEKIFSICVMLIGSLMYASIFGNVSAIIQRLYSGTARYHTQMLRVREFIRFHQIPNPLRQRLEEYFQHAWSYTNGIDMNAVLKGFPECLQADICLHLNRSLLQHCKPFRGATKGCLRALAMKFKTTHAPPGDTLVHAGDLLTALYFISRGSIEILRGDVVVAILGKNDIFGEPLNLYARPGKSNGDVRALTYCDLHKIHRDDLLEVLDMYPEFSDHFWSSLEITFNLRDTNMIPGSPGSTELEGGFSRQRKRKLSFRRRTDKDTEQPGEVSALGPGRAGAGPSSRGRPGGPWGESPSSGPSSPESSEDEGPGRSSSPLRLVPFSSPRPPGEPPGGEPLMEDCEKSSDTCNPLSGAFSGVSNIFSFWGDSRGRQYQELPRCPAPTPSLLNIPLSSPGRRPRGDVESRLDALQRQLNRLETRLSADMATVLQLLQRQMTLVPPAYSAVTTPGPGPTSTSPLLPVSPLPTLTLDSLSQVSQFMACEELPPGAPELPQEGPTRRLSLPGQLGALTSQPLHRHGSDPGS
Chain of human NR1/NR2B (Q13224 27-1484, other chains not shown): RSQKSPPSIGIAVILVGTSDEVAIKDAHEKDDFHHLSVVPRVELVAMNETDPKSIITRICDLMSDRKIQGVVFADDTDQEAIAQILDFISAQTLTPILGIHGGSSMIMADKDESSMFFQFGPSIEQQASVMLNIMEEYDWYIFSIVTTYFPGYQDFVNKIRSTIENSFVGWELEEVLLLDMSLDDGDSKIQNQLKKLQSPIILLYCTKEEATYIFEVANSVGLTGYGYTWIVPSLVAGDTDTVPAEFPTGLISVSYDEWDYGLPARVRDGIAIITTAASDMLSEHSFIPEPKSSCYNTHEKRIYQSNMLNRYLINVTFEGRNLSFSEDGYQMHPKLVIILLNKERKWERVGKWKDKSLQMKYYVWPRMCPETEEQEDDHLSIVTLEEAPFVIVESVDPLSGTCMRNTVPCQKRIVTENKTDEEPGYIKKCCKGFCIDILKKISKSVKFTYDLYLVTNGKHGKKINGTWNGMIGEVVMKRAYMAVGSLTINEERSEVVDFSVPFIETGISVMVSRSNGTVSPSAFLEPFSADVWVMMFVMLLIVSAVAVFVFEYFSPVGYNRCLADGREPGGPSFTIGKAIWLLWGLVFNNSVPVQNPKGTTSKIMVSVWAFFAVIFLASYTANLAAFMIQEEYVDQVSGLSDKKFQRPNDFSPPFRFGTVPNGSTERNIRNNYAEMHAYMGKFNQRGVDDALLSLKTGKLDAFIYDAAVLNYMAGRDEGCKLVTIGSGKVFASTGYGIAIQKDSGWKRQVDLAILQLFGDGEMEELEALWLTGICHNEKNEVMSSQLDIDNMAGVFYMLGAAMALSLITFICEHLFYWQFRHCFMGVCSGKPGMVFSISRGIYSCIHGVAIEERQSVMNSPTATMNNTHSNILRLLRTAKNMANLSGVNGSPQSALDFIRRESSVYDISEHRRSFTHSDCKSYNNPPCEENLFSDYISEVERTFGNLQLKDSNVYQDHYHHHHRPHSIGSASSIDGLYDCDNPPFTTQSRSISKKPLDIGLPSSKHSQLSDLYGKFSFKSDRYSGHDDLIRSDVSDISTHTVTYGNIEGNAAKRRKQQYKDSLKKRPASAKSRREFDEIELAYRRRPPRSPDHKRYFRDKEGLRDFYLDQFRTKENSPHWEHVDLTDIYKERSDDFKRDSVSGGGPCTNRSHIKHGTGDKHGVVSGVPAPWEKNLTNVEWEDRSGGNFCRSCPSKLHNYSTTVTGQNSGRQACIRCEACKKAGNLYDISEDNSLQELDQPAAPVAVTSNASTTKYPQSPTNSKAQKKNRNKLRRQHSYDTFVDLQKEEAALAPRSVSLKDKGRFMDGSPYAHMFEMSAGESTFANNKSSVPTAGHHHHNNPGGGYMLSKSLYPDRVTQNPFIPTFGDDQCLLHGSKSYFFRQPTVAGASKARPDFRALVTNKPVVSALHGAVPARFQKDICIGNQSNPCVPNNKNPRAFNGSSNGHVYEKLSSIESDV
Chain of human NR1/NR2A (Homo sapiens (Human), UniProt Q12879) (Q12879 23-1464, other chains not shown): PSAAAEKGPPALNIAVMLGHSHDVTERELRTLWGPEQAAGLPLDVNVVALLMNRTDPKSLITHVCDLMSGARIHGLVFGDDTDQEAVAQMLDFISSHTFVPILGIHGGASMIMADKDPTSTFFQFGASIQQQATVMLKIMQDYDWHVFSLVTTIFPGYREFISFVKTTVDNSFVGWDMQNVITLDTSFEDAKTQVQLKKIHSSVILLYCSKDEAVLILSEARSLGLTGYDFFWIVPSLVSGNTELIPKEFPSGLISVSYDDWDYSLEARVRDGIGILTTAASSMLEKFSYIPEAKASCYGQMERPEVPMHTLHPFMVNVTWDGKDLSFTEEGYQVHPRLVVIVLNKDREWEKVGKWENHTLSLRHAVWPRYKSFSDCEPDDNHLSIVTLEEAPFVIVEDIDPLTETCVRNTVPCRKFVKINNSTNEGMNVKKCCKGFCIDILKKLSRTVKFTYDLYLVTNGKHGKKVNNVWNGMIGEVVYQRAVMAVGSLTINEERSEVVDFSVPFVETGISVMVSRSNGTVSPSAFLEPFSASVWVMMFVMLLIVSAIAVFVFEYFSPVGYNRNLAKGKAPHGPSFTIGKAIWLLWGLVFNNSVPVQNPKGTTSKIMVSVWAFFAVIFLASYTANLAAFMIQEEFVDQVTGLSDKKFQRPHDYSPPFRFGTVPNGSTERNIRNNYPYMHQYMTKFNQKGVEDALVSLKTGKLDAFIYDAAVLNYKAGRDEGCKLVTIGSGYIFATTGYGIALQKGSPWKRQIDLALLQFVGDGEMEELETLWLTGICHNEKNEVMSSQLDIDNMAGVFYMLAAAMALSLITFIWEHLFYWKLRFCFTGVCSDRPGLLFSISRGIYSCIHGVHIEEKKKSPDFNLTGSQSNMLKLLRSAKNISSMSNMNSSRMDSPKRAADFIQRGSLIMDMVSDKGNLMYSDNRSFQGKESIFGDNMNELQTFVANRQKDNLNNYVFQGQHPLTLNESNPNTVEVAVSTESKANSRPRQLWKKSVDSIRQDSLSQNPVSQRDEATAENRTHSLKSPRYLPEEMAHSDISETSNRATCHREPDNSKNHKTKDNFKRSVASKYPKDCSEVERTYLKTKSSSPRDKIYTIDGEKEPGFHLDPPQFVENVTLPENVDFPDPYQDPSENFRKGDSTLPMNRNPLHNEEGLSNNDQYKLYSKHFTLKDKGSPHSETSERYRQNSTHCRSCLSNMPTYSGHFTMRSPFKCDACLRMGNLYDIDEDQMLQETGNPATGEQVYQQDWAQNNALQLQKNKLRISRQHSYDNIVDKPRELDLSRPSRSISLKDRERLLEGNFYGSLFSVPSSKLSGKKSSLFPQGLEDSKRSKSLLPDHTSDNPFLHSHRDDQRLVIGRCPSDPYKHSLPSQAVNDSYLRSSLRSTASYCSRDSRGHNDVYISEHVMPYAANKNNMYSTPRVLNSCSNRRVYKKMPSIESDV
Chain of CYP2D6 (P10635 whole entry): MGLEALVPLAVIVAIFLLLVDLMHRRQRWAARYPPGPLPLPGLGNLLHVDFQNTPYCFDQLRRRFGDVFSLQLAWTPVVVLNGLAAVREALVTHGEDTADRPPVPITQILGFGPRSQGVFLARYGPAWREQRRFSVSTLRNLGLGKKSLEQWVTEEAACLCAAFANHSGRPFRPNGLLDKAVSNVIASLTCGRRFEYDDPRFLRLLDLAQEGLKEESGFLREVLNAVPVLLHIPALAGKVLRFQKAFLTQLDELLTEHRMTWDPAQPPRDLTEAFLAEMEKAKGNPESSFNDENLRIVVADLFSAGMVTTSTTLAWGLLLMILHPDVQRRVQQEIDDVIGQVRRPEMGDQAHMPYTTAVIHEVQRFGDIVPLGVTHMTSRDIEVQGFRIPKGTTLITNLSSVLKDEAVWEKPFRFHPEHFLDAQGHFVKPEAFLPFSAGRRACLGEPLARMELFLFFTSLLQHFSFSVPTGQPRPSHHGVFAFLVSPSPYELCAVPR
Experimental for CYP2D6: Those CYP isoforms and their corresponding probe substrates are as follows: CYP1A2 (phenacetin, 30 μM), CYP2C9 (tolutamide, 100 μM), CYP2C19 (S-mephenytoin, 40 μM), CYP2D6 (dextromethorphan, 5 μM) and CYP3A4 (midazolam, 1 μM). All probe substrates were used at concentrations near or below their Kms. For experiment, a reaction mixture of test compound at 10 uM or in serial dilution, CYP probe substrate described above and 0.2 mg/mL pooled HLM in phosphate buffer, pH 7.4 in a final volume of 200 μL was pre-incubated at 37° C. for 10 minutes in triplicate. The reaction was initiated by addition of NADPH at final concentration of 1 mM. The reaction was terminated after 10 minutes (CYP1A2, CYP2D6 and CYP3A4) or 30 minutes (CYP2C9 and CYP2C19) by addition of 100 μL ice-cold acetonitrile with internal standard (IS). The samples were then centrifuged at 13,000 rpm and the supernatants were injected to LC-MS/MS (Agilent Technologies) to quantify the concentration of the specific metabolites of the probe substrates formed by individual CYP450 isoforms. The inhibition ratio is calculated as: (Mt−M0)/Mwater×100% in which Mt and M0 represent the concentrations of the specific probe substrate metabolite, which was formed by individual CYP450 isoform, at the beginning and end of the reaction in the presence of test compound; while Mwater represents the concentration of the specific metabolite at the end of the reaction in the absence of test compound. Test compound concentration-dependent response data experiments performed in triplicate.

Take `FC1(F)CN(CCc2ccccc2)CCC1Nc1ncnc2[nH]ncc12` (racemic) [C-1.1, (±)-N-(3,3-difluoro-1-phenethylpiperidin-4-yl)-1H-pyrazolo[3,4-d]pyrimidin-4-amine]: the IC50 at human NR1/NR2A [1] is greater than 10000 nM; at human NR1/NR2B (setting [3]), 98.8 nM; on hERG channel, 71000 nM.
Regarding `Fc1ccc(CCN2CCC(Nc3ncnc4[nH]ncc34)C(F)(F)C2)cc1` (racemic) [C-1.2, (±)-N-(3,3-difluoro-1-(4-fluorophenethyl)piperidin-4-yl)-1H-pyrazolo[3,4-d]-pyrimidin-4-amine], the IC50 on human NR1/NR2A [1] is greater than 10000 nM; on human NR1/NR2B (setting [3]), 68.3 nM; at hERG channel it was 16300 nM. Further, the “CYP2D6 @ 10 μM” value at CYP2D6 amounted to 45.1%.
`Cc1n[nH]c2ncnc(NC3CCN(CCc4ccc(C(F)(F)F)cc4)CC3(F)F)c12` (racemic) [C-1.34, (±)-N-(3,3-difluoro-1-(4-(trifluoromethyl)phenethyl)piperidin-4-yl)-3-methyl-1H-pyrazolo[3,4-d]pyrimidin-4-amine]: the IC50 at human NR1/NR2A [1] was greater than 10000 nM. Further, the “hERG @ 10 μM” value on hERG channel stood at 68%.
As for `Fc1ccc(F)c(CCN2CCC(Nc3ncnc4[nH]ncc34)C(F)(F)C2)c1` (racemic) [C-1.35, (±)-N-(1-(2,5-difluorophenethyl)-3,3-difluoropiperidin-4-yl)-1H-pyrazolo[3,4-d]-pyrimidin-4-amine], the concentration for half-maximal inhibition (IC50) was greater than 10000 nM on human NR1/NR2A [1] and 329 nM at human NR1/NR2B (setting [3]). For the same molecule, on hERG channel, the “hERG @ 10 μM” value was determined as 17%.
Consider `FC(F)(F)c1cccc(CCN2CCC(Nc3ncnc4[nH]ncc34)C(F)(F)C2)c1` (racemic) [C-1.36], for which the concentration for half-maximal inhibition (IC50) on human NR1/NR2A [1] is greater than 10000 nM. Besides, the “CYP2D6 @ 10 μM” value on CYP2D6 came to 27.9%. The “hERG @ 10 μM” value at hERG channel is reported as 56%.
For the molecule `FC(F)(F)c1ccc(CCN2CCC(Nc3ncnc4[nH]ccc34)C(F)(F)C2)cc1` (racemic) [C-2.5, (±)-N-(3,3-difluoro-1-(4-(trifluoromethyl)phenethyl)piperidin-4-yl)-7H-pyrrolo-[2,3-d]pyrimidin-4-amine], the values for the IC50 on human NR1/NR2A [1] (setting [4]) and on human NR1/NR2B (setting [5]) were greater than 10000 nM and 105 nM, respectively. For the same molecule, the “hERG @ 10 μM” value on hERG channel worked out at 60%.
As to `Cc1ccc(CCN2CCC(Nc3ncnc4[nH]ncc34)C(F)(F)C2)cn1` (racemic) [C-3.4, (±)-N-(3,3-difluoro-1-(2-(6-methylpyridin-3-yl)ethyl)piperidin-4-yl)-1H-pyrazolo[3,4-d]pyrimidin-4-amine], the IC50 is greater than 10000 nM on human NR1/NR2A [1] and 2270 nM at human NR1/NR2B (setting [3]). Also, the “hERG @ 10 μM” value at hERG channel turned out to be 18%.
`FC(F)(F)c1ccc(CCN2CCC(Nc3ncnc4[nH]ncc34)C(F)(F)C2)cn1` (racemic) [C-3.5, (±)-N-(3,3-difluoro-1-(2-(6-(trifluoromethyl)pyridin-3-yl)ethyl)piperidin-4-yl)-1H-pyrazolo[3,4-d]pyrimidin-4-amine]: the results for the IC50 at human NR1/NR2A [1] (setting [4]) and on human NR1/NR2B (setting [5]) were greater than 10000 nM and 822 nM, respectively. The “hERG @ 10 μM” value on hERG channel is recorded as 23%.
`FC(F)(F)c1ccc(CCN2CCC(Nc3ncnc4[nH]ccc34)C(F)(F)C2)cn1` (racemic) [C-4.5, (±)-N-(3,3-difluoro-1-(2-(6-(trifluoromethyl)pyridin-3-yl)ethyl)piperidin-4-yl)-7H-pyrrolo[2,3-d]pyrimidin-4-amine]: the IC50 on human NR1/NR2A [1] (setting [4]) is greater than 10000 nM; at human NR1/NR2B (setting [5]) it was 1740 nM. The “hERG @ 10 μM” value on hERG channel came to 24%.
As to `FC1(F)CN(CCc2ccc(Cl)cc2)CCC1Nc1ncnc2[nH]ncc12` (single isomer, unassigned) [E1-1.3, (R*)-N-(1-(4-chlorophenethyl)-3,3-difluoropiperidin-4-yl)-1H-pyrazolo[3,4-d]-pyrimidin-4-amine], the values for the IC50 on human NR1/NR2A [1] and on human NR1/NR2B (setting [3]) were greater than 10000 nM and 25 nM, respectively. Moreover, at CYP2D6, the “CYP2D6 @ 10 μM” value came to 21.5%. Also, at hERG channel, the “hERG @ 10 μM” value turned out to be 58%.
Turning to `Cc1ccc(CCN2CCC(Nc3ncnc4[nH]ncc34)C(F)(F)C2)cc1` (single isomer, unassigned) [E1-1.4, (R*)-N-(3,3-difluoro-1-(4-methylphenethyl)piperidin-4-yl)-1H-pyrazolo[3,4-d]-pyrimidin-4-amine], the IC50 at human NR1/NR2A [1] is greater than 10000 nM; at human NR1/NR2B (setting [3]) it was 18.5 nM.
`FC(F)c1ccc(CCN2CCC(Nc3ncnc4[nH]ncc34)C(F)(F)C2)cc1` (single isomer, unassigned) [E1-1.6, (R*)-N-(1-(4-(difluoromethyl)phenethyl)-3,3-difluoropiperidin-4-yl)-1H-pyrazolo-[3,4-d]pyrimidin-4-amine]: the IC50 on human NR1/NR2A [1] was greater than 10000 nM; at hERG channel (hERG IC50) it was 3500 nM. Further, on CYP2D6, the “CYP2D6 @ 10 μM” value was determined as 24.4%. For the same molecule, on hERG channel, the “hERG @ 10 μM” value is on record as 63%.
Turning to `FCc1ccc(CCN2CCC(Nc3ncnc4[nH]ncc34)C(F)(F)C2)cc1` (single isomer, unassigned) [E1-1.7, (R*)-N-(3,3-difluoro-1-(4-(fluoromethyl)phenethyl)piperidin-4-yl)-1H-pyrazolo[3,4-d]-pyrimidin-4-amine], the IC50 at human NR1/NR2A [1] is greater than 10000 nM; on human NR1/NR2B (setting [3]) it was 22.4 nM. Besides, the “CYP2D6 @ 10 μM” value at CYP2D6 is given as 23.2%. Moreover, the “hERG @ 10 μM” value on hERG channel is 36%.
Consider `FC(F)(F)Oc1ccc(CCN2CCC(Nc3ncnc4[nH]ncc34)C(F)(F)C2)cc1` (single isomer, unassigned) [E1-1.11, (R*)-N-(3,3-difluoro-1-(4-(trifluoromethoxy)phenethyl)piperidin-4-yl)-1H-pyrazolo[3,4-d]pyrimidin-4-amine], for which the IC50 at human NR1/NR2A [1] is greater than 10000 nM.
In the case of `FC(F)Oc1ccc(CCN2CCC(Nc3ncnc4[nH]ncc34)C(F)(F)C2)cc1` (single isomer, unassigned) [E1-1.12, (R*)-N-(1-(4-(difluoromethoxy)phenethyl)-3,3-difluoropiperidin-4-yl)-1H-pyrazolo[3,4-d]pyrimidin-4-amine], the IC50 is greater than 10000 nM at human NR1/NR2A [1] and 83.8 nM on human NR1/NR2B (setting [3]). Also, on hERG channel, the “hERG @ 10 μM” value worked out at 79%.
With `Fc1cc(Cl)ccc1CCN1CCC(Nc2ncnc3[nH]ncc23)C(F)(F)C1` (single isomer, unassigned) [E1-1.16, (R*)-N-(1-(4-chloro-2-fluorophenethyl)-3,3-difluoropiperidin-4-yl)-1H-pyrazolo-[3,4-d]pyrimidin-4-amine], the results for the IC50 on human NR1/NR2A [1] and on human NR1/NR2B (setting [3]) were greater than 10000 nM and 27.9 nM, respectively. Also, the “CYP2D6 @ 10 μM” value at CYP2D6 stood at 23.2%. Further, the “hERG @ 10 μM” value at hERG channel is 47%.
As to `Cc1ccc(CCN2CCC(Nc3ncnc4[nH]ncc34)C(F)(F)C2)cc1` (single isomer, unassigned) [E2-1.4, (S*)-N-(3,3-difluoro-1-(4-methylphenethyl)piperidin-4-yl)-1H-pyrazolo[3,4-d]-pyrimidin-4-amine], the IC50 was greater than 10000 nM on human NR1/NR2A [2] (setting [6]) and 21.9 nM at human NR1/NR2B (setting [3]).
Turning to `FCc1ccc(CCN2CCC(Nc3ncnc4[nH]ncc34)C(F)(F)C2)cc1` (single isomer, unassigned) [E2-1.7, (S*)-N-(3,3-difluoro-1-(4-(fluoromethyl)phenethyl)piperidin-4-yl)-1H-pyrazolo-[3,4-d]-pyrimidin-4-amine], the values for the IC50 on human NR1/NR2A [2] (setting [6]) and at human NR1/NR2B (setting [3]) were greater than 10000 nM and 38.1 nM, respectively. For the same molecule, the “hERG @ 10 μM” value on hERG channel was 49%.
On to `Fc1cc(Cl)ccc1CCN1CCC(Nc2ncnc3[nH]ncc23)C(F)(F)C1` (single isomer, unassigned) [E2-1.16, (S*)-N-(1-(4-chloro-2-fluorophenethyl)-3,3-difluoropiperidin-4-yl)-1H-pyrazolo-[3,4-d]pyrimidin-4-amine], for which the results for the IC50 at human NR1/NR2A [2] (setting [6]) and on human NR1/NR2B (setting [3]) were greater than 10000 nM and 61.9 nM, respectively. Moreover, the “hERG @ 10 μM” value on hERG channel amounted to 64%.
Consider `FC(F)(F)c1ccc(CCN2CCC(Nc3ncnc4[nH]ncc34)C(F)(F)C2)cc1` (single isomer, unassigned; (+)) [E1-1.5, (+)-(R*)-N-(3,3-difluoro-1-(4-(trifluoromethyl)phenethyl)piperidin-4-yl)-1H-pyrazolo[3,4-d]pyrimidin-4-amine], for which the IC50 at human NR1/NR2A [1] is greater than 10000 nM; against CYP2D6 (CYP2D6 IC50, pooled HLM), 34100 nM; at hERG channel (hERG IC50), 9800 nM. Moreover, the “CYP2D6 @ 10 μM” value at CYP2D6 is 27.6%.
As to `FC(F)(F)c1ccc(C(F)(F)CN2CCC(Nc3ncnc4[nH]ncc34)CC2)cc1` [LX-1, reference compound], on CYP2D6, the “CYP2D6 @ 10 μM” value is 93%.
As for “(±)-N-(1-(3,4-difluorophenethyl)-3,3-difluoropiperidin-4-yl)-1H-pyrazolo-[3,4-d]-pyrimidin-4-amine [C-1.15]”, the IC50 at human NR1/NR2A [2] (HEK293 cells expressing NR1/NR2A; glutamate 100 μM, glycine 50 μM; read-out: hNR2A IC50) is greater than 10000 nM; at human NR1/NR2B (setting [5]) it was 78.9 nM. Besides, at hERG channel, the “hERG @ 10 μM” value is reported as 37%.
